Tests used:
[1] = biological target: Vascular endothelial growth factor receptor 2 (Homo sapiens, UniProt P35968); test: Inhibition of human vascular endothelial growth factor receptor 2 kinase activity
[2] = biological target: Fibroblast growth factor receptor 1 (Homo sapiens, UniProt P11362); test: Inhibition of human fibroblast growth factor receptor 1
[3] = biological target: Fibroblast growth factor receptor (Homo sapiens, UniProt P22607+P11362+P22455+P21802); test: Inhibition of FGF-stimulated human umbilical vein endothelial cell proliferation; format: functional, cell-based
[4] = biological target: Vascular endothelial growth factor receptor (Homo sapiens, UniProt P17948+P35916+P35968); test: Inhibition of VEGF-stimulated human umbilical vein endothelial cell proliferation; format: functional, cell-based
[5] = Plasma level after 1 hour of oral administration of 50 mg/kg compound in mouse; format: ADME, organism-based; set-up: dose 50 mg/kg, route oral; settings: read-out: Plasma level
[6] = Plasma level after 4 hours of oral administration of 50 mg/kg compound in mouse; format: ADME, organism-based; set-up: dose 50 mg/kg, route oral; settings: read-out: Plasma level
Cytochrome P450 2C9 = Cytochrome P450 2C9 (Homo sapiens, UniProt P11712); test: Inhibitory concentration against human cytochrome P450 2C9; format: ADME
Cytochrome P450 1A2 = biological target: T1, Cytochrome P450 1A2 (Homo sapiens, UniProt P05177); test: Inhibitory concentration against human cytochrome P450 1A2; format: ADME
T1 sequence (P05177 whole entry): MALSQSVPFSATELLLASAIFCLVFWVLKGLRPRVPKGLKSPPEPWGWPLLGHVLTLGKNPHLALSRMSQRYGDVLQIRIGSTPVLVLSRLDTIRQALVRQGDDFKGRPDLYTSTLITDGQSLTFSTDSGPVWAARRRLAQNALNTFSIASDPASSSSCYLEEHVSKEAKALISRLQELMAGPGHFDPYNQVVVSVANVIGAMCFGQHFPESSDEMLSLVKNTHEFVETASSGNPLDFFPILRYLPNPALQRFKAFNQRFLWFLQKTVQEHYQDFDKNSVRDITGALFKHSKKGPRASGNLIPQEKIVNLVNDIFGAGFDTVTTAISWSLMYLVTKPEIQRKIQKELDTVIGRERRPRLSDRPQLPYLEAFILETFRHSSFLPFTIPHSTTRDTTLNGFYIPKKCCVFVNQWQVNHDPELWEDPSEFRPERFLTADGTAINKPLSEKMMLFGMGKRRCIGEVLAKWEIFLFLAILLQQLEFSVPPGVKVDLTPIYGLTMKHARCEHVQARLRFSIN

Cytochrome P450 3A4 = Cytochrome P450 3A4 (Homo sapiens, UniProt P08684); test: Inhibitory concentration against human cytochrome P450 3A4; format: ADME
[7] = biological target: Platelet-derived growth factor receptor beta (Homo sapiens, UniProt P09619); test: Inhibition of human platelet-derived growth factor receptor beta
Mus musculus [8] = test: Tumor growth inhibition determined after oral administration of 50 mg/kg/day compound against established L2987 human lung carcinoma xenografts implanted subcutaneously in athymic mouse; format: functional; settings: read-out: TGI
[9] = biological target: Cyclin-dependent kinase 2 (Homo sapiens, UniProt P24941); test: Inhibition of human cyclin-dependent kinase 2
[10] = biological target: Receptor tyrosine-protein kinase erbB-2 (Homo sapiens, UniProt P04626); test: Inhibition against human HER2 kinase
[11] = biological target: Insulin-like growth factor 1 receptor (Homo sapiens, UniProt P08069); test: Inhibition of human insulin-like growth factor I receptor
Mus musculus [12] = test: Tumor growth inhibition determined after oral administration of […] mg/kg/day compound against established L2987 human lung carcinoma xenografts implanted subcutaneously in athymic mouse; format: functional; settings: read-out: TGI
Mus musculus [13] = test: Tumor growth inhibition determined after oral administration of 100 mg/kg/day compound against established L2987 human lung carcinoma xenografts implanted subcutaneously in athymic mouse; format: functional; settings: read-out: TGI
[14] = biological target: Protein kinase C alpha type (Homo sapiens, UniProt P17252); test: Inhibition of human protein kinase C alpha
[15] = biological target: Tyrosine-protein kinase Lck (Homo sapiens, UniProt P06239); test: Inhibition of human p56 lck tyrosine kinase
Mus musculus [16] = test: Tumor growth inhibition determined after oral administration of 60 mg/kg/day compound against established L2987 human lung carcinoma xenografts implanted subcutaneously in athymic mouse; format: functional; settings: read-out: TGI

Fibroblast growth factor receptor 1, sequence (P11362 whole entry): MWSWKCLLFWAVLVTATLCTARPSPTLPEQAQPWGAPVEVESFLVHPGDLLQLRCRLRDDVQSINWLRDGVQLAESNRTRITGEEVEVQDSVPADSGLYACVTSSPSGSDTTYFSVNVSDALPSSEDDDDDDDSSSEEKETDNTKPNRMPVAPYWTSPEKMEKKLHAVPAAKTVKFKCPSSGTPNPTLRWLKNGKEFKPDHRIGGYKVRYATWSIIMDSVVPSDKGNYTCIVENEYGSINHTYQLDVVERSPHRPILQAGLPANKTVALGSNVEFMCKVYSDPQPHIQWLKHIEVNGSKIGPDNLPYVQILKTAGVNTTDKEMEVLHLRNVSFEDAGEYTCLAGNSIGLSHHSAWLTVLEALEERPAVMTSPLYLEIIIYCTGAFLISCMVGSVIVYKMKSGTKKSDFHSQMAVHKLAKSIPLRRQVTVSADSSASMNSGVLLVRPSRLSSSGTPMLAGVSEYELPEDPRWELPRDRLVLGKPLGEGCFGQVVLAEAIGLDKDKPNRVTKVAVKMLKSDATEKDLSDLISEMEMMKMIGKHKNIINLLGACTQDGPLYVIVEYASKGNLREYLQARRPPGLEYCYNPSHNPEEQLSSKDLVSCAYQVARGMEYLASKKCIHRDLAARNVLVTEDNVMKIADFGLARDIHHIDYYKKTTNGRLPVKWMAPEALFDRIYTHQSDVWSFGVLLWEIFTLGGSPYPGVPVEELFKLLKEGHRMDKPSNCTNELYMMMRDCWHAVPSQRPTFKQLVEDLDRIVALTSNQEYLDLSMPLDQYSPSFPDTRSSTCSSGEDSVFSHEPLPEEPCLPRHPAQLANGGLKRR
Vascular endothelial growth factor receptor 2, sequence (P35968 whole entry): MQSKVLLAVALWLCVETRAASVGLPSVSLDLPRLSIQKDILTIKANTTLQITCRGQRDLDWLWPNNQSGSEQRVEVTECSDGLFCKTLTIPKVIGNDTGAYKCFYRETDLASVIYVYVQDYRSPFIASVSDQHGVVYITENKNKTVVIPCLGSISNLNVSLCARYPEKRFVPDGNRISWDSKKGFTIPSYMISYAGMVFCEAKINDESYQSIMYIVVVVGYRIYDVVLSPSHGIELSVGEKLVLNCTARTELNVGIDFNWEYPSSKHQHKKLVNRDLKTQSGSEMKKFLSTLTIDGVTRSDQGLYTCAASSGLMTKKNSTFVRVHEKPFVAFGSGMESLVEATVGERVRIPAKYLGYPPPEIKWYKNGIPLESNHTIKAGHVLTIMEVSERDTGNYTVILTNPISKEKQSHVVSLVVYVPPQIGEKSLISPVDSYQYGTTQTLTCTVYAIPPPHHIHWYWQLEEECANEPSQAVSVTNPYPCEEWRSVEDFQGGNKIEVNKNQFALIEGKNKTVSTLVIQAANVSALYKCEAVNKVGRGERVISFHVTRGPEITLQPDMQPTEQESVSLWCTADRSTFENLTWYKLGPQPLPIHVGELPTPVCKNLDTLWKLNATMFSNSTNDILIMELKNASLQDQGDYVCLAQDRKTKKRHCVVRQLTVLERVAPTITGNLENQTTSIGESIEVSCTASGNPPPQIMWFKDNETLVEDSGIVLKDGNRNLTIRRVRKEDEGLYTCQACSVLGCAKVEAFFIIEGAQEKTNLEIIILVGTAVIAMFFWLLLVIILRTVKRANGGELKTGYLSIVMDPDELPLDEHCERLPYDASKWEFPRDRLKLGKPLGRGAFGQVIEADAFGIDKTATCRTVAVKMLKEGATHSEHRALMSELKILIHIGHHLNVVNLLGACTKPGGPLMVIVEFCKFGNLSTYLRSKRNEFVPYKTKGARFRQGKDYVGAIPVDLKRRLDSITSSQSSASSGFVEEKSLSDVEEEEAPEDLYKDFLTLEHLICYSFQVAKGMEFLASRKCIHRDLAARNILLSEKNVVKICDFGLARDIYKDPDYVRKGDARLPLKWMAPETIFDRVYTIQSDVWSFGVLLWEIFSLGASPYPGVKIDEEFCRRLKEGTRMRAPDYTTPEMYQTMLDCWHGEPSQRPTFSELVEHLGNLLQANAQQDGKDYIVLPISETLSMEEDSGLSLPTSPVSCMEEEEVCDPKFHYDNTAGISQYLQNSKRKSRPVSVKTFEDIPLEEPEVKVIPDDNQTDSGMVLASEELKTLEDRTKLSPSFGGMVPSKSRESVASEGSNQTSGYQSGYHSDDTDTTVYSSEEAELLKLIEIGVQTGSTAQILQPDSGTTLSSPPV
Receptor tyrosine-protein kinase erbB-2, sequence (P04626 whole entry): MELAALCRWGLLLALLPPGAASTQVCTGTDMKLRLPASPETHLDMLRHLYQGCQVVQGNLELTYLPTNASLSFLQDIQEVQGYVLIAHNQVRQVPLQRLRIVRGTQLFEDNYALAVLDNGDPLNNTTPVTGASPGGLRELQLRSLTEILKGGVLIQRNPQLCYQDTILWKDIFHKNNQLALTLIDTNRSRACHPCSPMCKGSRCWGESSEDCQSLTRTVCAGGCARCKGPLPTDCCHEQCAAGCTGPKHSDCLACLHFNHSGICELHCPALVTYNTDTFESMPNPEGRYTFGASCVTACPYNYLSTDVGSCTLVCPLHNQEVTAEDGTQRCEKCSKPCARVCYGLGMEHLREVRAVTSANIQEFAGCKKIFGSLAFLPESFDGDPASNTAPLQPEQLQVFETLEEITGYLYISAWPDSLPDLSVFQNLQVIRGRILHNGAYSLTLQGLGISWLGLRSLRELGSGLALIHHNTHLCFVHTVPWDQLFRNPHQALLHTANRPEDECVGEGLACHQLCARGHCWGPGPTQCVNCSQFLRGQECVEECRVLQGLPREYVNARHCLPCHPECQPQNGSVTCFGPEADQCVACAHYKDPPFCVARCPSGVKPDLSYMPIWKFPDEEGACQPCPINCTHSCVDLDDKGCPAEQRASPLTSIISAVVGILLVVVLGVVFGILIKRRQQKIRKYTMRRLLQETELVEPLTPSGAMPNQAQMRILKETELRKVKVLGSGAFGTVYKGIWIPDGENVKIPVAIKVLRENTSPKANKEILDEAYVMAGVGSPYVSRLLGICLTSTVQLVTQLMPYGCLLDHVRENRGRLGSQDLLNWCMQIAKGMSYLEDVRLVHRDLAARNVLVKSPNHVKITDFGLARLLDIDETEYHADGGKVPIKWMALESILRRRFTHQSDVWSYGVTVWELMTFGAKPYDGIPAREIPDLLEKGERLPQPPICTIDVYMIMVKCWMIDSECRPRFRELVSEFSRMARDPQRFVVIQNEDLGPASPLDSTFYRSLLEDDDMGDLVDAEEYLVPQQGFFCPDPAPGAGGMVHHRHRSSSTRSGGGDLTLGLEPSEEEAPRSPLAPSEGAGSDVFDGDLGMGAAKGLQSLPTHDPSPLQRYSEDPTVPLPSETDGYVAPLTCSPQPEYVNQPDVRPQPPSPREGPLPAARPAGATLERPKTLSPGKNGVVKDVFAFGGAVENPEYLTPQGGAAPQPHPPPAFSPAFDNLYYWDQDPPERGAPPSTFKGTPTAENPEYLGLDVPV
Cytochrome P450 3A4, sequence (P08684 whole entry): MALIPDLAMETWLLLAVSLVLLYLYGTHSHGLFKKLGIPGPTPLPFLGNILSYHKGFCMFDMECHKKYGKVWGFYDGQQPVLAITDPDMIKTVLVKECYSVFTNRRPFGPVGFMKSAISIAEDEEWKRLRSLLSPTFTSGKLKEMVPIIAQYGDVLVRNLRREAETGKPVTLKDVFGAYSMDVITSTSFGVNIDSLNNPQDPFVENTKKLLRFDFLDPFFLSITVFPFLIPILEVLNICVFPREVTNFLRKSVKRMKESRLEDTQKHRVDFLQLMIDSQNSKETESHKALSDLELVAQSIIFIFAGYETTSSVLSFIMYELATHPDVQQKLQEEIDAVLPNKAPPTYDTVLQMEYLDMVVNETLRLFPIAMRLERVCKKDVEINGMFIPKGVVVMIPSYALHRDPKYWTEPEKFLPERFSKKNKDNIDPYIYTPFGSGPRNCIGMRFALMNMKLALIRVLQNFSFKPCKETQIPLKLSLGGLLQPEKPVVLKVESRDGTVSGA
Cytochrome P450 2C9, sequence (P11712 whole entry): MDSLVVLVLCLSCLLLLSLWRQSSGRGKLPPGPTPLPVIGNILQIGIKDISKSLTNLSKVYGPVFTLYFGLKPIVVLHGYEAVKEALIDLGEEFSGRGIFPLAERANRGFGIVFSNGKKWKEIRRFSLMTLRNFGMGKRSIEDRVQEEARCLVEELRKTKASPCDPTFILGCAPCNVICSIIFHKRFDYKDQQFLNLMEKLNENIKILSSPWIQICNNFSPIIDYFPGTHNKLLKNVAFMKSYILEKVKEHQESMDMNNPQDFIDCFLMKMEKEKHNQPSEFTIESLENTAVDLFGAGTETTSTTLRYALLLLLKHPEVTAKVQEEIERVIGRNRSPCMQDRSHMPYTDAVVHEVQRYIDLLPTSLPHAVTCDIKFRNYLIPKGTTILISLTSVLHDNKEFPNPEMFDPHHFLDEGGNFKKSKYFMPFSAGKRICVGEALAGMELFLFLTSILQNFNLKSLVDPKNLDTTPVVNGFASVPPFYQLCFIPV

Structure (SMILES)	IC50 [1] [nM]	IC50 [2] [nM]	IC50 [3] [nM]	IC50 [4] [nM]	other results
CONC(=O)c1cc(Nc2ncnn3cc(-c4nnc(C5CC5)o4)c(C(C)C)c23)c(F)cc1F	11	14	5.3	3.6	
CONC(=O)c1cc(Nc2ncnn3cc(-c4nnc(CC5CC5)o4)c(C(C)C)c23)c(F)cc1F	17	27	9.2	4	
CONC(=O)c1cc(Nc2ncnn3cc(NC(=O)OCCCN4CCCCC4)c(C(C)C)c23)c(F)cc1F	79			62	
CONC(=O)c1cc(Nc2ncnn3cc(-c4ncc(C)o4)c(C(C)C)c23)c(F)cc1F	8	20	4	1.1	IC50 (Cytochrome P450 2C9): 3600 nM; IC50 (Cytochrome P450 1A2): 64 nM; IC50 (Cytochrome P450 3A4): 5100 nM
CONC(=O)c1cc(Nc2ncnn3cc(-c4nnc(C(F)F)o4)c(C(C)C)c23)c(F)cc1F		100	21		IC50 [7]: > 2000 nM; inhibition in vivo at 50 mg/kg/day (Mus musculus [8]): 30%; IC50 [9]: > 50000 nM; IC50 [10]: > 10000 nM; IC50 [11]: > 25000 nM; inhibition in vivo at 150 mg/kg/day (Mus musculus [12]): 88.4%; concentration at 1 h [5]: 187 µM; inhibition in vivo at 100 mg/kg/day (Mus musculus [13]): 46.5%; IC50 [14]: > 50000 nM; concentration at 4 h [6]: 155 µM
CONC(=O)c1cc(Nc2ncnn3cc(-c4nnc(CC(F)(F)F)o4)c(C(C)C)c23)c(F)cc1F	29	68	44	25	
CONC(=O)c1cc(Nc2ncnn3cc(-c4noc(C)n4)c(C(C)C)c23)c(F)cc1F	110	140			
CONC(=O)c1cc(Nc2ncnn3cc(NC(=O)OCCCS(C)(=O)=O)c(C(C)C)c23)c(F)cc1F		58			IC50 [7]: > 2000 nM; IC50 [9]: > 50000 nM; IC50 [10]: 5300 nM; IC50 [15]: 5100 nM; IC50 [11]: > 25000 nM; concentration at 1 h [5]: 7.9 µM; IC50 [14]: > 50000 nM; concentration at 4 h [6]: 13.8 µM

Now from value to compound, other results behind:

IC50 [1] [nM]	IC50 [2] [nM]	IC50 [3] [nM]	IC50 [4] [nM]	Structure (SMILES)	other results
36			19	CONC(=O)c1cc(Nc2ncnn3cc(NC(=O)OC4CCN(C)CC4)c(C(C)C)c23)c(F)cc1F	concentration at 1 h [5]: 5.1 µM; concentration at 4 h [6]: 3 µM
1200				CCOC(=O)c1cn2ncnc(Nc3cc(C(=O)NOCC(C)C)c(F)cc3F)c2c1C(C)C	
23	33	6.6	2.1	CONC(=O)c1cc(Nc2ncnn3cc(-c4nnc(CC(C)C)o4)c(C(C)C)c23)c(F)cc1F	
71	50	46	50	CONC(=O)c1cc(Nc2ncnn3cc(-c4n[nH]c(C)n4)c(C(C)C)c23)c(F)cc1F	
270				CCOC(=O)c1cn2ncnc(Nc3ccc(Br)c(C(=O)NOC)c3)c2c1C(C)C	
190				CCOC(=O)c1cn2ncnc(Nc3cc(C(=O)NOCC4CC4)c(F)cc3F)c2c1C(C)C	
16	16	4.6	2.1	CONC(=O)c1cc(Nc2ncnn3cc(-c4nnc(CS(C)(=O)=O)o4)c(C(C)C)c23)c(F)cc1F	inhibition in vivo at 60 mg/kg/day (Mus musculus [16]): 42.6%; concentration at 1 h [5]: 288 µM; inhibition in vivo at 100 mg/kg/day (Mus musculus [13]): 74.9%; concentration at 4 h [6]: 232 µM
13				CCOC(=O)c1cn2ncnc(Nc3cc(C(=O)NOC)c(F)cc3F)c2c1C(C)C	
77	160	54	91	CONC(=O)c1cc(Nc2ncnn3cc(-c4nnco4)c(C(C)C)c23)c(F)cc1F	

— ChEMBL document CHEMBL1144449, “Design, synthesis, and evaluation of orally active 4-(2,4-difluoro-5-(methoxycarbamoyl)phenylamino)pyrrolo[2,1-f][1,2,4]triazines as dual vascular endothelial growth factor receptor-2 and fibroblast growth factor receptor-1 inhibitors” (J Med Chem, 2005)
